Holding throughout (format): cell-based
Assay [1] relates to NCI's 60 human tumor cell line. In words: NCI 60 human tumor cell line in vitro screen (average / whole panel). The conditions noted are these: calculated from all cell lines tested, molar concentrations, read-out: average log GI50 (converted).
Assay [2] deals with HL-60(TB) leukemia cell line. In words: cells. Conditions: Homo sapiens; HL-60(TB); read-out: Cytotoxicity log GI50 (converted).
The test system of assay [3] is NCI-H460 non-small cell lung cancer cell line. In words: NCI in vitro screen, non-small cell lung cancer NCI-H460. The conditions noted are these: Homo sapiens, read-out: Cytotoxicity log GI50 (converted).
Assay [4] relates to HCT-116 colon cancer cell line. In words: NCI in vitro screen, colon cancer HCT-116. Conditions: Homo sapiens; HCT-1.16 (head); HCT-116 (footnote); read-out: Cytotoxicity log GI50 (converted).
The subject of assay [5] is SF-295 CNS cancer cell line. The assay is described as follows: NCI in vitro screen, CNS cancer SF-295. The conditions noted are these: Homo sapiens, read-out: Cytotoxicity log GI50 (converted).
The subject of assay [6] is U-251 CNS cancer cell line. In words: NCI in vitro screen, CNS cancer U-251. Conditions: Homo sapiens, read-out: Cytotoxicity log GI50 (converted).
Assay [7] concerns SK-MEL-5 melanoma cell line. In words: NCI in vitro screen, melanoma SK-MEL-5. The conditions noted are these: Homo sapiens, read-out: Cytotoxicity log GI50 (converted). The source says: (§1) Compounds 41-51 and 53-68 were submitted to NCI and assayed in the NCI's in vitro disease-oriented antitumor screen, which involves determination of a test compound's effects on the growth of approximately 60 human tumor cell lines. See, M. R. Boyd, et al. In Cancer: Principles and Practice of Oncology Updates; De Vita, V. T., Hellman, S., Rosenberg, S. A., Eds; J. B. Lippincoft: Philadelphia, pp 1-12 (1989); and A. Monks, et al. J. Natl. Cancer Inst. 83:757 (1991). These lines include leukemia, non-small cell lung, colon, central nervous system (CNS), melanoma, ovarian, renal, prostate, and breast cancers.
(§2) Compounds 29'-51' were submitted to NCI and assayed in the NCI's in vitro disease-oriented antitumor screen, using the techniques described in Example 5. This assay involves determinations of a test agent's effect on growth parameters against a panel of approximately 60 human tumor cell lines, derived largely from solid tumors, including non-small cell lung, colon, central nervous system, renal, ovarian, prostate, and breast cancers, plus a few leukemia cell lines. The cytotoxic effects of each compound are obtained as GI50 or […] values, which represent the molar drug concentrations required to cause half growth inhibition and total growth inhibition, respectively. The results are expressed for each cell line as average log GI50 values in Table 4, as log GI50 values in Table 5, and as log TGI values and average log TGI values in Table 6.

Assay [8] relates to OVCAR-3 ovarian cancer cell line. In words: NCI in vitro screen, ovarian cancer OVCAR-3. The conditions noted are these: Homo sapiens, read-out: Cytotoxicity log GI50 (converted).
Assay [9] concerns 786-0 renal cancer cell line. In words: NCI in vitro screen, renal cancer 786-0. The conditions noted are these: Homo sapiens, read-out: Cytotoxicity log GI50 (converted).
Source text: as §1, §2

For assay [10], the system named is PC-3 prostate cancer cell line. The assay is described as follows: NCI in vitro screen, prostate cancer PC-3. Conditions: Homo sapiens, read-out: Cytotoxicity log GI50 (converted).
Source text: as §1, §2

The subject of assay [11] is MDA-MB-435 breast cancer cell line. The assay is described as follows: NCI in vitro screen, breast cancer MDA-MB-435. The conditions noted are these: Homo sapiens, read-out: Cytotoxicity log GI50 (converted).
For assay [12], the system named is MDA-N breast cancer cell line. In words: NCI in vitro screen, breast cancer MDA-N. The conditions noted are these: Homo sapiens, read-out: Cytotoxicity log GI50 (converted).
Source text: as §1, §2

Consider 15 compounds from US6229016A, “Method for treating tumors using 2-aryl-naphthyridin-4-ones” (priority 2000, dated 2001).

As usually defined, the GI50 is the concentration at which growth is held to half of that of the control.

Structures are written as SMILES.

Regarding `Cc1cnc2c(c1)C(=O)CC(c1ccc3ccccc3c1)=N2` [Compound 49, 2-(β-Naphthyl)-6-methyl-1,8-naphthyridin-4-one], the GI50 was 741 nM in [1]; 141 nM in assay [2]; 398 nM in assay [3]; 468 nM in [4]; 550 nM in assay [5]; 468 nM in [6]. Further, the concentration for 50% growth inhibition (GI50) in [7] was 363 nM; in assay [8] it was 355 nM; in assay [9], 617 nM; in assay [10], 407 nM; in [11], 105 nM; in [12] it was 132 nM.

As for `Cc1ccnc2c1C(=O)CC(c1cccc3ccccc13)=N2` [Compound 43, 2-(α-Naphthyl)-5-methyl-1,8-naphthyridin-4-one], the 50% growth inhibitory concentration (GI50) in assay [1] is 35.5 nM; in assay [2], < 10 nM; in assay [3] it was < 10 nM; in assay [4], < 10 nM; in assay [5] it was 10.7 nM; in [6] it was < 10 nM. For the same compound, the GI50 was < 10 nM in [7]; < 10 nM in assay [8]; 12 nM in [9]; 20 nM in assay [10]; < 10 nM in [11]; < 10 nM in assay [12].

`COc1cccc(-c2cc(=O)c3c(C)ccnc3[nH]2)c1` [Compound 45]: the GI50 in [1] was 58.9 nM; in [2] it was 12.9 nM; in [3], 47.9 nM; in assay [4], 44.7 nM; in assay [5], 28.8 nM; in assay [6], 58.9 nM. Besides, the concentration for 50% growth inhibition (GI50) in assay [7] was 22.4 nM; in assay [8], 25.7 nM; in [9] it was 51.3 nM; in assay [10], 26.3 nM; in assay [11], < 10 nM; in [12] it was < 10 nM.

As to `Cc1cnc2[nH]c(-c3cccc(F)c3)cc(=O)c2c1` [29'], the GI50 in [1] is 50.1 nM; in [2], 20.4 nM; in assay [3], 38.9 nM; in assay [4], 24 nM; in [5] it was 27.5 nM; in assay [6] it was 40.7 nM. Besides, the concentration for 50% growth inhibition (GI50) in assay [7] was 28.2 nM; in assay [8], 13.5 nM; in [9] it was 28.2 nM; in assay [10], 34.7 nM; in assay [11], < 10 nM; in [12] it was 11.7 nM.

As to `Cc1cccc(-c2cc(=O)c3cccnc3[nH]2)c1` [37'], the 50% growth inhibitory concentration (GI50) was 95.5 nM in assay [1]; 19.1 nM in assay [2]; 25.7 nM in assay [3]; 22.4 nM in assay [4]; 37.2 nM in assay [5]; 44.7 nM in assay [6]. For the same compound, the GI50 in [7] is 25.7 nM; in assay [8], 41.7 nM; in assay [9], 37.2 nM; in assay [10], 42.7 nM; in assay [11] it was < 10 nM; in [12], < 10 nM.

With `Cc1cc(C)c2c(n1)N=C(c1cccc3ccccc13)CC2=O` [Compound 46, 2-(α-Naphthyl)-5,7-dimethyl-1,8-naphthyridin-4-one], the GI50 was 1050 nM in assay [1]; 245 nM in assay [2]; 631 nM in assay [3]; 380 nM in [4]; 589 nM in [5]; 372 nM in assay [6]. For the same compound, the GI50 in [7] is 468 nM; in [8], 347 nM; in assay [9] it was 9550 nM; in assay [10], 759 nM; in assay [11], 191 nM; in assay [12] it was 234 nM.

Take `COc1ccc(-c2cc(=O)c3c(C)ccnc3[nH]2)cc1` [Compound 52]: the GI50 in [1] is 12900 nM; in assay [2], 4370 nM; in assay [3] it was 6170 nM; in assay [4], 6460 nM; in assay [5], 19500 nM; in [6], 6310 nM. In addition, the GI50 was 3890 nM in [7]; 13800 nM in assay [8]; 25100 nM in assay [9]; 18200 nM in assay [10]; 2400 nM in assay [11]; 2090 nM in [12].

As to `Cc1ccnc2[nH]c(-c3cccc(Cl)c3)cc(=O)c12` [33'], the GI50 in assay [1] is 158 nM; in [2] it was 10 nM; in assay [3], 38.9 nM; in assay [4], 15.8 nM; in [5], 40.7 nM; in assay [6], 52.5 nM. The concentration for 50% growth inhibition (GI50) in assay [7] was 41.7 nM; in assay [8] it was 31.6 nM; in assay [9], 33.1 nM; in assay [10] it was 15500 nM; in assay [11] it was < 10 nM; in assay [12], 11.7 nM.

On to `Cc1cc(C)c2c(=O)cc(-c3cccc(Cl)c3)[nH]c2n1` [36'], for which the concentration for 50% growth inhibition (GI50) in assay [1] is 347 nM; in [2], 74.1 nM; in [3], 224 nM; in assay [4], 170 nM; in assay [5], 47.9 nM; in [6], 295 nM. The 50% growth inhibitory concentration (GI50) was 117 nM in assay [7]; 170 nM in assay [8]; 204 nM in assay [9]; 27.5 nM in assay [10]; 13.2 nM in [11]; 19.1 nM in assay [12].

For `Cc1cnc2[nH]c(-c3cccc(Cl)c3)cc(=O)c2c1` [34'], the GI50 is 269 nM in assay [1]; 30.9 nM in assay [2]; 50.1 nM in assay [3]; 30.2 nM in assay [4]; 25.1 nM in [5]; 69.2 nM in assay [6]. Further, the 50% growth inhibitory concentration (GI50) in [7] was 70.8 nM; in [8], 22.4 nM; in assay [9], 42.7 nM; in assay [10], > 100000 nM; in assay [11], < 10 nM; in assay [12], > 100000 nM.

Consider `COc1ccc(-c2cc(=O)c3cccnc3[nH]2)cc1` [Compound 51], for which the GI50 was 38000 nM in [1]; 12900 nM in [2]; 26300 nM in [3]; 17800 nM in assay [4]; 64600 nM in assay [5]; 53700 nM in assay [6]. Also, the GI50 in assay [7] is 34700 nM; in assay [8], 30200 nM; in assay [9], 56200 nM; in assay [10], 31600 nM; in assay [11], 20000 nM; in assay [12], 20900 nM.

With `COc1ccccc1-c1cc(=O)c2c(C)cc(C)nc2[nH]1` [Compound 43], the GI50 in assay [1] is 57500 nM; in assay [2], 30200 nM; in assay [3] it was 70800 nM; in [4] it was 74100 nM; in [5] it was 53700 nM; in assay [6], > 100000 nM. The GI50 is 33900 nM in assay [7]; 64600 nM in assay [8]; > 100000 nM in assay [9]; 47900 nM in assay [10]; 32400 nM in [11]; 33100 nM in assay [12].

As for `Cc1cccc(-c2cc(=O)c3c(C)ccnc3[nH]2)c1` [38'], the 50% growth inhibitory concentration (GI50) in assay [1] is 57.5 nM; in assay [2] it was 18.2 nM; in [3], 36.3 nM; in [4] it was 46.8 nM; in assay [5], 30.2 nM; in assay [6] it was 53.7 nM. Moreover, the 50% growth inhibitory concentration (GI50) in assay [7] was 33.9 nM; in assay [8], 22.4 nM; in [9], 53.7 nM; in assay [10], 33.1 nM; in assay [11], < 10 nM; in assay [12], 11 nM.

Take `Cc1cc(C)c2c(=O)cc(-c3ccc4ccccc4c3)[nH]c2n1` [Compound 51, 2-(β-Naphthyl)-5,7-methyl-1,8-naphthyridin-4-one]: the GI50 in assay [1] was 13500 nM; in assay [2] it was 3470 nM; in assay [3] it was 13200 nM; in assay [4], 12600 nM; in [5], 14800 nM; in assay [6] it was 15800 nM. Also, the 50% growth inhibitory concentration (GI50) in assay [7] was 2190 nM; in assay [8] it was 20000 nM; in [9], 51300 nM; in assay [10], 5500 nM; in assay [11], 2950 nM; in assay [12], 3240 nM.

With `Cc1ccc2c(n1)N=C(c1ccc3ccccc3c1)CC2=O` [Compound 50, 2-(β-Naphthyl)-7-methyl-1,8-naphthyridin-4-one], the GI50 in assay [1] is 4570 nM; in assay [2], 1780 nM; in [3], 3800 nM; in assay [4], 3980 nM; in assay [5] it was 3800 nM; in [6], 4570 nM. Also, the GI50 was 3310 nM in assay [7]; 3630 nM in [8]; 5370 nM in assay [9]; 2630 nM in [10]; 1580 nM in assay [11]; 1950 nM in assay [12].
